6 compounds from PubChem BioAssay (NCI) can be followed below.

“And” between values parts separate entries of the source, which are not always exact repeats. Equal entries are not always repeated.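 Compound exposure: 48 hours, 5 concentrations, 96-well plates. Here, GI50 denotes the concentration required for 50% inhibition of growth. TGI: total growth inhibition.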

For orientation: GI50 means the concentration at which growth is held to half of that of the control. For orientation: TGI means the concentration at which net growth stops. High values mean less potent growth arrest, low ones more potent growth arrest.

Test systems include OVCAR-4 ovarian; SF-295 CNS; UACC-257 melanoma; LOX IMVI melanoma; HS 578T breast; HL-60(TB) leukemia; NCI-H460 lung; MOLT-4 leukemia; MDA-MB-435; SW-620 colon.
What all share (assay): DTP human tumour cell line panel, 48 h

Take `N[C@@H](Cc1ccc(N(CCCl)CCCl)cc1)C(=O)O`: the GI50 is 32.1 µM and 18.6 µM in the assay with OVCAR-4 ovarian; 3.95 µM and 16 µM in the assay on SF-295 CNS; 37.6 µM and 20.2 µM in the assay on UACC-257 melanoma; 6.5 µM and 11.9 µM with LOX IMVI melanoma; 6.96 µM in the assay with HL-60(TB) leukemia; 3.01 µM and 3.78 µM with NCI-H460 lung. Also, the GI50 was 3.43 µM and 1.45 µM in the assay on MOLT-4 leukemia; 63.4 µM in the assay on MDA-MB-435; 19.5 µM and 17.2 µM in the assay on SW-620 colon. Further, the TGI in the assay on OVCAR-4 ovarian was > 100 µM and 48.2 µM and 84.3 µM; in the assay with SF-295 CNS, 49.2 µM and 72.1 µM and 128 µM; in the assay with UACC-257 melanoma, > 100 µM and 58.9 µM and 119 µM; with LOX IMVI melanoma, > 100 µM and 57.2 µM and 96.3 µM; with HS 578T breast, > 100 µM and 165 µM; in the assay on HL-60(TB) leukemia, 11.6 µM and 33 µM. Further, the TGI in the assay with NCI-H460 lung was > 100 µM and 29.2 µM and 103 µM; in the assay on MOLT-4 leukemia it was 20.6 µM and 24.5 µM and 52.6 µM; in the assay on MDA-MB-435, > 100 µM and 105 µM; in the assay on SW-620 colon, > 100 µM and 56.8 µM and 157 µM.
On to `COc1ccc(/C=N/C2=C(C#N)C(c3ccccc3)c3ccc4ccccc4c3O2)cc1` (stereo not drawn), for which the GI50 was 0.645 µM with OVCAR-4 ovarian; 0.314 µM with SF-295 CNS; greater than 84.5 µM with UACC-257 melanoma; 0.587 µM in the assay with LOX IMVI melanoma; 0.279 µM with HS 578T breast; 0.321 µM in the assay with HL-60(TB) leukemia. Moreover, the GI50 in the assay with NCI-H460 lung was 0.363 µM; with MOLT-4 leukemia, 0.516 µM; in the assay on MDA-MB-435, 0.0962 µM; in the assay with SW-620 colon it was 0.316 µM. Moreover, the TGI with OVCAR-4 ovarian is greater than 100 µM; in the assay with SF-295 CNS, greater than 100 µM; in the assay with UACC-257 melanoma it was greater than 100 µM; in the assay on LOX IMVI melanoma, greater than 51.4 µM; in the assay on HS 578T breast, greater than 100 µM; in the assay with HL-60(TB) leukemia, 1.44 µM. In addition, the TGI was greater than 100 µM in the assay with NCI-H460 lung, greater than 100 µM in the assay on MOLT-4 leukemia, 0.353 µM in the assay with MDA-MB-435 and greater than 100 µM in the assay with SW-620 colon.
For the compound `O=c1c(Br)ccc(Br)cc1Br`, the GI50 in the assay on OVCAR-4 ovarian is 2.47 µM; with SF-295 CNS, 8.01 µM; in the assay with UACC-257 melanoma, 1.91 µM; with LOX IMVI melanoma, 0.897 µM; in the assay with HS 578T breast, 3.44 µM; with HL-60(TB) leukemia, 0.662 µM. Also, the GI50 in the assay with NCI-H460 lung is 4.88 µM; in the assay on MOLT-4 leukemia, 0.41 µM; in the assay on MDA-MB-435, 1.85 µM; in the assay on SW-620 colon it was 0.268 µM. Further, the TGI in the assay with OVCAR-4 ovarian came out at 4.63 µM; with SF-295 CNS it was 22.4 µM; with UACC-257 melanoma it was 3.49 µM; in the assay with LOX IMVI melanoma, 2.35 µM; in the assay on HS 578T breast it was 23.1 µM; in the assay with HL-60(TB) leukemia, 2.67 µM. Moreover, the TGI in the assay on NCI-H460 lung was 11.5 µM; in the assay on MOLT-4 leukemia, 1.86 µM; in the assay on MDA-MB-435, 4.38 µM; in the assay on SW-620 colon it was 0.673 µM.
Turning to `Cn1cc(C2=C(c3cn(CCCN/C(N)=N\[N+](=O)[O-])c4ccccc34)C(=O)NC2=O)c2ccccc21`, the GI50 with OVCAR-4 ovarian was 3.22 µM; with SF-295 CNS, 3.74 µM; in the assay on UACC-257 melanoma, 7.12 µM; in the assay on LOX IMVI melanoma it was 0.949 µM; with HS 578T breast it was 1.42 µM; with HL-60(TB) leukemia it was 1.23 µM. The GI50 in the assay with NCI-H460 lung was 5.9 µM; in the assay on MOLT-4 leukemia, 2.25 µM; in the assay on MDA-MB-435, 3.01 µM; in the assay with SW-620 colon, 5.63 µM. Also, the TGI in the assay on OVCAR-4 ovarian was 17.4 µM; in the assay on SF-295 CNS it was greater than 23.6 µM; with UACC-257 melanoma it was 21.8 µM; in the assay with LOX IMVI melanoma, 21.6 µM; in the assay on HS 578T breast, 14.5 µM; in the assay on HL-60(TB) leukemia, 7.66 µM. Further, the TGI in the assay with NCI-H460 lung was 20.6 µM; in the assay on MOLT-4 leukemia it was greater than 16.4 µM; with MDA-MB-435, 7.73 µM; in the assay on SW-620 colon it was greater than 22.1 µM.
Consider `COc1ccc(-c2nn(C(=O)c3cc(OC)c(OC)c(OC)c3)c3cc(N)ccc23)cc1`, for which the concentration for 50% growth inhibition (GI50) with OVCAR-4 ovarian was less than 0.0195 µM; in the assay on SF-295 CNS, less than 0.01 µM; in the assay with UACC-257 melanoma, 5.54 µM; in the assay on LOX IMVI melanoma, less than 0.01 µM; in the assay with HS 578T breast, less than 0.0179 µM; in the assay on HL-60(TB) leukemia, less than 0.0121 µM. Further, the 50% growth inhibitory concentration (GI50) in the assay with NCI-H460 lung was less than 0.0112 µM; with MOLT-4 leukemia it was 0.0382 µM; with MDA-MB-435, less than 0.01 µM; with SW-620 colon, less than 0.01 µM. In addition, the TGI in the assay on OVCAR-4 ovarian was 12.9 µM; in the assay with SF-295 CNS, 1.75 µM; with UACC-257 melanoma it was 39.3 µM; in the assay on LOX IMVI melanoma it was 5.54 µM; in the assay with HS 578T breast, 39 µM; with HL-60(TB) leukemia, less than 0.022 µM. Besides, the figures for the TGI with NCI-H460 lung, in the assay with MOLT-4 leukemia and in the assay with SW-620 colon were 1.74 µM, 23.7 µM and 23.4 µM, respectively.
Consider `CCCCCCCCCCCC(=O)[O][Sn]([CH2]CCC)([CH2]CCC)[CH2]CCC`, for which the GI50 in the assay with OVCAR-4 ovarian is less than 0.0212 µM; with SF-295 CNS it was 0.0679 µM; in the assay on UACC-257 melanoma, 0.0533 µM; in the assay on LOX IMVI melanoma, 0.0259 µM; in the assay with HS 578T breast, 0.0549 µM; in the assay on HL-60(TB) leukemia it was 0.0567 µM. Besides, the GI50 was 0.0438 µM in the assay on NCI-H460 lung, 0.0436 µM in the assay on MOLT-4 leukemia, 0.0553 µM in the assay on MDA-MB-435 and 0.0419 µM with SW-620 colon. Moreover, the TGI turned out to be 0.153 µM in the assay with OVCAR-4 ovarian; 0.177 µM in the assay on SF-295 CNS; 0.181 µM in the assay on UACC-257 melanoma; 0.0712 µM with LOX IMVI melanoma; 0.296 µM in the assay with HS 578T breast; 0.155 µM in the assay on HL-60(TB) leukemia. In addition, the TGI amounted to 0.156 µM with NCI-H460 lung, 0.732 µM in the assay on MOLT-4 leukemia, 0.15 µM with MDA-MB-435 and 0.138 µM with SW-620 colon.
